This is an account of results in paper PMC6768041 (Chemistry Central Journal, 2018).

Data set [1] has as its system MAO-B. The conditions noted are these: at high concentrations 100 µM; cited from earlier work.
The test system of data set [2] is monoamine oxidase-B. The conditions noted are these: cited from earlier work.
A short description of data set [3]: DPPH radical scavenging assay. The note with it: mean ± SEM, n = 3. On the procedure: DPPH (2,2-diphenyl-1-picryl-hydrazyl-hydrate) free radical process is an antioxidant assay based on electron-transfer that turns violet color in ethanol. The antioxidant activity was based on free radical scavenging effect towards stable DPPH• radical upon spectrophotometric reaction according to the method reported in the literature. Briefly, solutions of synthesized compounds were prepared in fifty milliliters of various concentrations (25, 50, 75, and 100) µg/mL dissolved in methanol, was added to 5 mL of a 0.004% methanol solution of DPPH. The stock solution was prepared with 0.01% DPPH• in ethanol/water (1:1). While sample solutions were prepared as 5 mL DPPH• solution was mixed with 5 mL ascorbic acid solution then shaken vigorously and kept in the dark at 37 °C. The samples were incubated at the 37 °C temperature for 30 min in the dark chamber subsequently, absorbance was measured. The marketable recognized antioxidant, ascorbic acid was utilized for contrast or as a positive control. Initially, the blank spectrum for ethanol/water was recorded subsequently the spectrophotometric titration was carried out with various concentrations of synthesized compounds. The absorbance was recorded at 517 nm with UV/Vis Epoch ELISA reader, and antioxidant activity was measured as a decrease in absorbance of DPPH•. The IC50 values of free radical DPPH, based on control reading were calculated by the following equation. %inhibition of DPPH radical=Abr-Aar/Abr×100 where Abr is the absorbance prior to reaction and Aar is the absorbance after reaction with DPPH•.

Data set [4] addresses T1, hMAO-A (Homo sapiens, UniProt P21397).
T1 construct: host or cells: insect cells (BTI-TN-5B14), recombinant baculovirus
T1 sequence (P21397 1-527): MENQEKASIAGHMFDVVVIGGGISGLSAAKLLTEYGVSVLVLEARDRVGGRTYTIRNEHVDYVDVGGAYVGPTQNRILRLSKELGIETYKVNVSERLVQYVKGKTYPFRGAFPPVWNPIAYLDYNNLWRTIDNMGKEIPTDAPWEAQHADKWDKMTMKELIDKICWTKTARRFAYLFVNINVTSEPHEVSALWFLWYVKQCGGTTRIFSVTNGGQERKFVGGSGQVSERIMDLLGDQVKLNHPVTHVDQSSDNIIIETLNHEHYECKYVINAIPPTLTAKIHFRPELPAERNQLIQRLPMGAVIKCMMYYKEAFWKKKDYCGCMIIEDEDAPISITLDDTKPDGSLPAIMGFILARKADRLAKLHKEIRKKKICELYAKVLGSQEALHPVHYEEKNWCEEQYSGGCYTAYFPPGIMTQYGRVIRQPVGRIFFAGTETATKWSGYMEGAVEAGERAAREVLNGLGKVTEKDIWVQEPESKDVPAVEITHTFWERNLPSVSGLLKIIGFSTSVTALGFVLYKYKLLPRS
The data set can be described thus: hMAO-A inhibition, Amplex Red fluorometric assay.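 As to all read-outs here: recombinant human MAO-A and MAO-B from baculovirus-infected insect cell microsomes, H2O2 formation detected fluorometrically via Amplex Red with horseradish peroxidase, background from enzyme-free wells subtracted, distilled water negative control.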 The conditions noted are these: for Selectivity index: IC50 (MAO-A)/IC50 (MAO-B); for IC50: recombinant hMAO-A, p-tyramine substrate, mean SEM. The class given is biochemical.
Text: (§3) The biological hMAO activity evaluation of the test drugs was examined by quantifying their action on the generation of H2O2 by p-tyramine (general substrate for hMAO-B and hMAO-A), utilizing the Amplex Red MAO assay kit (Sigma USA) and MAO isoforms (microsomal) obtained from insect cells (BTI-TN-5B14) expressed as recombinant baculovirus consisting cDNA probes for hMAO-A or hMAO-B. Reactions were monitored by thin layer chromatography TLC executed over silica gel precoated plates (0.25 mm) purchased from Merck, envisioned of single spots was carried in iodine and UV chambers, in mobile media TLC- Benzene:Chloroform (7:3).
(§4) All synthesized compounds were evaluated for their capability to inhibit the MAO-A and MAO-B isoforms of human MAO by a fluorometric method. The MAO inhibitory property of the test compounds was examined with the recombinant human enzymes using an Amplex Red Monoamine Oxidase Assay Kit (Sigma USA). The incessant peroxidase-linked photometric assay was performed on the fluorometer. […] Distilled water was used as a negative control. In brief, 0.1 mL of sodium phosphate buffer (0.05 M, pH 7.4) with the test new compounds/reference inhibitors in different concentrations and sufficient quantity of recombinant hMAO-A or hMAO-B requisite and in step to complete our investigational protocol with the equal reaction velocity, (hMAO-A: 1.1 mg protein; explicit activity: 150 nmol of p-tyramine oxidized to p-hydroxyphenylacetaldehyde/min/mg protein; hMAO-B: 7.5 mg protein; explicit activity: 22 nmol of p-tyramine changed/min/mg protein) were incubated for 15 min at 37 °C, placed in the dark fluorometric compartment. After incubation, the effect was attained through the addition of 200 mM Amplex Red reagent (final concentrations), 1 mM p-tyramine, and 1 U/mL horseradish peroxidase. Finally, the generation of hydrogen peroxide and, subsequently, of resorufin was measured at 37 °C in fluorescence reader (λemission, 585 nm, λexcitation, 530 nm) after 15 min, by the time fluorescence amplified linearly. All the control experiments were performed concurrently by changing the reference inhibitors and test compounds with suitable dilutions in the solvents. Moreover, the activity of abovementioned evaluated compounds to alter the fluorescence produced in the combination reaction by (e.g. for reacting with Amplex Red reagent directly) non-enzymatic inhibition was identified by addition of these compounds to solutions having just the Amplex Red reagent in a sodium phosphate buffer. […] The fluorescence reading was computed by subtraction of the background activity and was evaluated from wells with all components not including the hMAO isoforms that was substituted by a sodium phosphate buffer solution. All data was processed in Microsoft Excel, to calculate IC50 values.

In data set [5] the test system is MAO-A. The note with it: cited from earlier work.
In data set [6] the target is T2, hMAO-B (Homo sapiens, UniProt P27338).
T2 construct: host or cells: insect cells (BTI-TN-5B14), recombinant baculovirus
T2 sequence (P27338 1-520): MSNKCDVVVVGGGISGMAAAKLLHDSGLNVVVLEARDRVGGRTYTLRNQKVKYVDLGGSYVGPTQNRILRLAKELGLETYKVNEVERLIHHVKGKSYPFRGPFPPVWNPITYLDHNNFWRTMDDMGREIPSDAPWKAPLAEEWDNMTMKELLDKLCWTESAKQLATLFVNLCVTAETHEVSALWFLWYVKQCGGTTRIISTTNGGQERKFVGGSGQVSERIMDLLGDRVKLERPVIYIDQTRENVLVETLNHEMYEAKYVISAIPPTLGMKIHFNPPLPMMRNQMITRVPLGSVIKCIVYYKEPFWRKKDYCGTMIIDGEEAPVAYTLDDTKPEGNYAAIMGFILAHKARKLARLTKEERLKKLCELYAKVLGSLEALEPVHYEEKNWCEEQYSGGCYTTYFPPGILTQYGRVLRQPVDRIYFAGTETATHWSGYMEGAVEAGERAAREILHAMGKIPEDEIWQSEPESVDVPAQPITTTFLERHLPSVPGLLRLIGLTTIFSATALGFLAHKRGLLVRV
As to the kind of experiment: hMAO-B inhibition, Amplex Red fluorometric assay. The class given is biochemical. The note with it: recombinant hMAO-B, p-tyramine substrate; mean SEM.
Text: as §3, §4

A short description of data set [7]: Hydrogen peroxide scavenging (H2O2) assay. The note with it: mean ± SEM, n = 3; read-out: H2O2 radical scavenging IC50. As for the experimental part:
Amongst the reactive oxygen species (ROS), H2O2 is an essential radical as even though it is not lethal of its own accord, but can be changed to further even highly toxic radicals, for instance, OH^• by hypochlorous acid or Fenton reaction by the oxidases enzymes. A solution of H2O2 (40 µM) was added in phosphate buffer saline ([…] pH 7.4). Different quantities of test and references compounds in DMSO were added to 2 mL of hydrogen peroxide solution in buffer solution. Subsequently, upon to 10 min, the absorbance was calculated at 230 nm against a blank solution including phosphate buffer without H2O2 [31]. The percentage of scavenging H2O2 was estimated by the formula in this way: %ScavengingH2O2=AS-AT/Ai×100 where AS is the absorbance of control and AT is the absorbance of the test.

The target in data set [8] is T2, hMAO-B. The data set can be described thus: Enzyme kinetics of MAO-B (Lineweaver–Burk plots). Type of data set: biochemical. The conditions noted are these: several inhibitor concentrations, tyramine substrate. On the procedure:
(§1) A set of Lineweaver–Burk plots was constructed in the presence and absence of different concentrations of compound 7 and 5 for hMAO-A and hMAO-B respectively. The graph comprises of five plots, every plot raised by quantifying MAO-B and MAO-A catalytic rate at various concentrations of substrate (0.5–5.0 µM).
(§2) Kinetic constants of steady-state (Vmax, maximum rate, and Km, Michaelis constant,) were measured by studying the effects of substrate concentration on the primary rate of reaction of MAO-A or MAO-B in absence and presence of compounds at diverse concentrations. To examine the mode of action by synthesized derivatives all of them were solubilized in dimethyl sulfoxide, with the concentration of 1%, and utilized in a wide concentration range. Construction of Lineweaver–Burk plots illustrated the mode of MAO inhibition. Selectivity index SI (Ki (MAO-A)/Ki (MAO-B)) was also computed. Enzyme kinetics for the interaction of the compounds with the MAO enzymes was computed on the GraphPad Prism 7 software.

Data set [9] has as its target T1, hMAO-A. The data set can be described thus: Enzyme kinetics of MAO-A (Lineweaver–Burk plots). The note with it: tyramine substrate. Type of data set: biochemical. On the procedure: as §1, §2
Data set [10] has as its system rMAO-B. The note with it: cited from earlier work.
For data set [11], the target named is T1, hMAO-A. The note with it: cited from earlier work.
Data set [12] deals with T2, hMAO-B. Also noted: method as in PMID 26592858. The conditions noted are these: cited from earlier work.
The subject of data set [13] is rMAO-A. The note with it: cited from earlier work.

Consider `O=C(/C=C/c1ccc(O)c(O)c1)OCCc1ccccc1` [CAPE, caffeic acid phenethyl ester], for which the “MAO-B inhibition in words” value in data set [1] was “inhibiting MAO-B”.

With `O=C(O)/C=C/c1ccc(O)c(O)c1` [Caffeic acid, reference compound], the “Monoamine oxidase-B inhibition in words” value in data set [2] was “did not produce significant monoamine oxidase-B inhibition”. The IC50 was 9.679 ± 0.013 µM in data set [3]; 11.72 ± 0.044 µM in [4]; above 1000 µM in data set [5]; 22.88 ± 0.009 µM in [6]; 8.868 ± 0.011 µM in [7]. The molecule further returned a Selectivity index in [4] of 0.512. Further, in data set [5], the “Inhibition of MAO-A activity” value is reported as “up to 40.4%”.

Take `O=C(/C=C/c1ccc(O)c(O)c1)Nc1cccc2ccccc12` [Compound 5, (E)-3-(3,4-dihydroxyphenyl)-N-(naphthalen-1-yl)acrylamide]: the melting point was 176 to 176.3 °C. Also, the “Vmax in Lineweaver–Burk plot (hMAO-B)” value in [8] is given as “same Vmax value at several concentrations”. This molecule also had an IC50 in [3] of 20.8 ± 0.003 µM. Also, in [4], the Selectivity index stood at 4.653 and the half-inhibitory concentration (IC50) is 50.26 ± 0.035 µM. Further, in data set [6], the IC50 stood at 10.8 ± 0.024 µM. Besides, the IC50 in [7] stood at 17.64 ± 0.005 µM.

Molecule `C=CCc1ccc(OC(=O)/C=C/c2ccc(O)c(O)c2)c(OC)c1` [Compound 7, (E)-4-allyl-2-methoxyphenyl 3-(3,4-dihydroxyphenyl)acrylate] gave a melting point of 161 to 161.7 °C. Besides, in data set [9], the “Mode of inhibition (hMAO-A)” value was “competitive inhibition mode”. In [3], this molecule registered a 50% inhibitory concentration (IC50) of 11.22 ± 0.012 µM. Moreover, in [4], the Selectivity index came out at 0.291 and the IC50 came out at 7.03 ± 0.022 µM. For the same molecule, the IC50 in [6] is 24.14 ± 0.017 µM. Further, the IC50 in data set [7] stood at 12.78 ± 0.024 µM.

As to `O=C(/C=C/c1ccc(O)c(O)c1)Oc1ccc2ccccc2c1` [Compound 11, (E)-naphthalen-2-yl 3-(3,4-dihydroxyphenyl)acrylate], the melting point fell in the range of 176 to 176.9 °C. In addition, in [3], 12.95 ± 0.031 µM corresponded to half-maximal inhibition (IC50). Besides, in data set [4], the Selectivity index amounted to 1.233 and the half-inhibitory concentration (IC50) was determined as 24.34 ± 0.011 µM. In data set [6], the IC50 was found to be 21.48 ± 0.056 µM. Moreover, in [7], the IC50 was 11.34 ± 0.045 µM.

On to `O=c1oc2c(O)c(O)cc3c(=O)oc4c(O)c(O)cc1c4c23` [Ellagic acid], for which the “MAO inhibition value rMAO-B” value in [10] is given as 412.24 nM rMAO-B.

Turning to `COc1cc(/C=C/C(=O)O)ccc1O` [Ferulic acid], the “MAO inhibition value hMAO-A” value in [11] is recorded as 7.55 ± 0.49 µM. The “MAO inhibition value hMAO-B” value in data set [12] is recorded as 24.00 ± 1.98 µM.

With `O=C(O)c1cc(O)c(O)c(O)c1` [Gallic acid], in [11], the “MAO inhibition value hMAO-A” value was 9.49 ± 0.83 hMAO-A µM.

Regarding `O=C(O)c1ccc(O)c(O)c1` [Protocatechuic acid], in data set [10], the “MAO inhibition value rMAO-B” value is recorded as 2411 µM. For the same molecule, the “MAO inhibition value rMAO-A” value in data set [13] is on record as 300 µM.

Turning to `O=C(O)/C=C/c1ccccc1` [Trans-Cinnamic acid], the “MAO inhibition value rMAO-B” value in data set [10] is given as 1.21 ± 0.071 µM. In addition, the “MAO inhibition value rMAO-A” value in data set [13] is 6.47 ± 0.73 µM.

In the case of `O=C(/C=C/c1ccc(O)c(O)c1)O[C@H](Cc1ccc(O)c(O)c1)C(=O)O` [rosmarinic acid], the “Monoamine oxidase-B inhibition in words” value in [2] was “did not produce significant monoamine oxidase-B inhibition”.
